Earlier results, collected in patent US20250026710A1, “PROCESS FOR PREPARING A BENZOATE SALT OF A 1-(3-AMINOPYRROLIDINE-1-CARBONYL)-3,4-DIPHENYLBENZENE COMPOUND” (Astex Pharmaceuticals, Inc., priority 2021, published 2025).
Counter-ions that a name gives are not always drawn.

Experiments:
[1] = under the tested conditions of WO 2021/095835
[2] = rats, dose 32 mg/5 mL/kg; listed as benzoic acid salt of Compound (A)

Cmax [2]: 2680 nM
Tmax [2]: 2.7 h
Compound: CC(C)(O)Cc1ccc(-c2ccc(C(=O)N3CC[C@H](N)C3)cc2-c2ccc(C#N)c(F)c2)c(F)c1 [benzoate salt of Compound (A)]
solid stability [1]: superior solid stability and maintains its purity up to four weeks
